How the values were obtained:
[1] = tested on: FFPE human breast cancer tissues; test: anti-panCK antibody staining in de-crosslinked FFPE human breast cancer samples; details: various concentrations in citrate or TE buffer; compared to control de-crosslinked in a steamer
Method: FFPE human breast cancer tissues were sectioned to […] thickness, transferred to Superfrost© Plus slides, and processed essentially as described in Example 1. Specifically, 2-amino-5-methylbenzoic acid (Compound 1) was used as the de-crosslinking agent and applied to de-paraffinized and re-hydrated samples in a buffer solution, such as a solution of citrate buffer at pH 6 or a solution of Tris-EDTA (TE) buffer at pH 9. The samples were incubated under various de-crosslinking temperatures (e.g., 80° C. or 95° C.) for various time periods (e.g., 15 minutes or 30 minutes). Different concentrations of the de-crosslinking agent in the buffer solutions were tested, including 0 mM, 50 mM, 100 mM, 200 mM, and 400 mM of Compound 1.
The samples were washed (e.g., in PBST) and detectable probes in a hybridization buffer (e.g., containing SSC and formamide) were hybridized to RCA products (RCPs) in the sample. The detectable probes included probes that hybridize to sequences (e.g., barcode sequences or anchor sequences) in the RCPs and comprise overhangs for hybridization of fluorescently labelled detection oligonucleotides. The samples were imaged in fluorescent microscope with 40× objective and the signals associated with the RCPs were quantified using a software. […]

[2] = tested on: FFPE human breast cancer tissues; test: RCP detection (RCP count/μm^2 nuclei area) in catalytically de-crosslinked FFPE human breast cancer samples; details: for detection of RCPs (detected object counts per nucleic area, RCP count/μm^2 nuclei area): 100 mM, 80° C., 30 minutes, compared to control de-crosslinked in a steamer for 30 minutes using citrate buffer (pH 6)
Text: A formalin-fixed, paraffin-embedded (FFPE) tissue sample was cut into thin tissue sections using a pre-warmed microtome. The sections were placed on slides and dried at a temperature higher than room temperature, followed by overnight drying at room temperature in a desiccator. Images of the sections were taken for record, e.g., in order to monitor tissue morphology and/or detachment during sample processing. In some instances, images of the sections taken after de-crosslinking were compared to those before de-crosslinking.
The slides were baked uncovered in an oven, and then calibrated to room temperature. The sections were de-paraffinized and dehydrated using xylene and absolute ethanol. The sections were then re-hydrated using an ethanol series (e.g., 96% ethanol followed by 70% ethanol), and then re-hydrated in nuclease free water (e.g., DEPC water). The slides were gently dried to allow application of a cassette to seal around the tissue sections, without letting the tissue section to dry completely.
The sections were then de-crosslinked using a catalyst disclosed herein in a buffer solution. In some instances, the a de-crosslinking buffer can function as an antigen retriever buffer. Then the sections were washed three times with RNase-free phosphate-buffered saline (PBS) or PBST (phosphate-buffered saline solution with a low-concentration detergent solution, e.g., 0.05% to 0.1% Tween™ 20) prior to application of labelling agents (e.g., detectable nucleic acid probes for nucleic acids and/or labelled antibodies for proteins) to the tissue samples.
FFPE human breast cancer tissues were sectioned to […] thickness, transferred to Superfrost© Plus slides, and processed essentially as described in Example 1. Specifically, 2-amino-5-methylbenzoic acid (Compound 1) was used as the de-crosslinking agent and applied to de-paraffinized and re-hydrated samples in a buffer solution, such as a solution of citrate buffer at pH 6 or a solution of Tris-EDTA (TE) buffer at pH 9. […]

[3] = tested on: FFPE human breast cancer, melanoma, lymph node, lung cancer, and normal lung tissues; test: anti-Vimentin antibody staining in de-crosslinked FFPE samples from various tissues; details: across the tissue types, compared to de-crosslinking in a steamer and heating at 95° C. in TE buffer
Text: (§1) The samples were washed (e.g., in PBST) and detectable probes in a hybridization buffer (e.g., containing SSC and formamide) were hybridized to RCA products (RCPs) in the sample. The detectable probes included probes that hybridize to sequences (e.g., barcode sequences or anchor sequences) in the RCPs and comprise overhangs for hybridization of fluorescently labelled detection oligonucleotides. The samples were imaged in fluorescent microscope with 40× objective and the signals associated with the RCPs were quantified using a software. In some instances, the samples were also stained with DAPI and/or labelled antibodies, e.g., fluorescently labelled anti-Vimentin antibody or anti-panCK antibody. In some instances, once the samples were imaged to detect signals associated with the detectable probes or labelled antibodies, the samples were stripped (e.g., using a denaturing agent) and contacted with additional detectable probes or labelled antibodies for the next imaging round.
FFPE human breast cancer, melanoma, lymph node, lung cancer, and normal lung tissues were processed essentially as described in Example 1. […] Analytes in the de-crosslinked tissue samples were detected essentially as described in Example 2.

[4] = tested on: FFPE human breast cancer samples; test: antibody staining (Pan cytokeratin, Vimentin, Ki67) in FFPE human breast cancer samples de-crosslinked with additives; details: in the presence of urea and proteinase K
Method: (§2) FFPE human breast cancer samples sectioned to […] thickness were processed essentially as described in […]. Specifically, 2-amino-5-methylbenzoic acid (Compound 1) was used as the de-crosslinking agent and applied to de-paraffinized and re-hydrated samples in a buffer solution with various additives, such as 0.05% SDS, 0.2% SDS, 0.5% SDS, 0.05 M urea, 0.5 M urea, 0.2 μg/ml proteinase K, 0.5 μg/ml proteinase K, 1 μg/ml proteinase K, and combinations thereof. The samples were incubated at 80° C. for 30 minutes, using 150 mM of Compound 1. Analytes in the de-crosslinked tissue samples were detected essentially as described in Example 2 using circularizable probes (e.g., padlock probes) targeting ACTB, GAPDH, MALAT-1, RPLPO, Eef2, Ppib, POLR2A RNA transcripts. Detectable probes were hybridized to sequences (e.g., barcode sequences or anchor sequences) in the RCPs and comprised overhangs for hybridization of fluorescently labelled detection oligonucleotides. The samples were imaged in fluorescent microscope with 40× objective and the signals associated with the RCPs were quantified using a software.
(§3) FIG. 10A-10C show the detected object count per nucleic area (RCP count/μm^2 nuclei area) in cells of the human breast cancer samples treated with Compound 1 for de-crosslinking in the presence or absence of additives SDS, urea, and/or proteinase K as indicated. […]

[5] = tested on: FFPE human breast cancer samples; test: RCP detection in FFPE human breast cancer samples de-crosslinked with additives; details: for detection of RCPs (detected object counts per nucleic area): 150 mM, 80° C., 30 minutes, compared to no additional additives or single additives
Method: as §2
FIG. 10A-10C show the detected object count per nucleic area (RCP count/μm^2 nuclei area) in cells of the human breast cancer samples treated with Compound 1 for de-crosslinking in the presence or absence of additives SDS, urea, and/or proteinase K as indicated. […] In addition, it was observed antibody staining (e.g., antibody positive signal intensity for Pan cytokeratin, Vimentin, and Ki67) was compatible with the catalytic de-crosslinking conditions with Compound 1 in the presence of urea and proteinase K. Tissue morphology was also observed to be preserved post workflow and detection as confirmed by H&E staining that was performed.

[6] = tested on: FFPE human breast cancer samples; test: tissue morphology by H&E staining after de-crosslinking workflow with additives; details: post workflow and detection, confirmed by H&E staining
Method: as §2, §3

[7] = tested on: FFPE human breast cancer, melanoma, lymph node, lung cancer, and normal lung tissues; test: RCP/RNA transcript detection in de-crosslinked FFPE samples from various tissues; details: across the tissue types; for visualization of transcripts GAPDH/RPLPO or MALAT-I/ACTB (RCPs): 0 mM or 200 mM, 30 minutes, compared to de-crosslinking in a steamer; for RNA/protein visualization: overlaid images of RNA detection and protein detection
Method: The de-crosslinked and washed tissue samples can be immediately used for analyte detection. In some instances, circularizable probes (e.g., padlock probes) targeting MALAT-1/ACTB (nuclear/cytoplasmic) or GAPDH/RPLPO (cytoplasmic) RNA transcripts were added in hybridization buffers (e.g., including SSC and formamide) and incubated with the samples to allow hybridization of the circularizable probes to their target nucleic acids. In addition to a target hybridization region, each circularizable probe also contained a common anchor region and a barcode region. Then, the probe hybridization mixture was removed and the samples were washed. For ligation of the circularizable probes hybridized to their target nucleic acids, a ligation reaction mix (e.g., containing a SplintR® ligase buffer, RNase inhibitor and SplintR® ligase) and a rolling circle amplification (RCA) primer were added to the samples and incubated for probe circularization and RCA primer hybridization to the probes. The samples were washed and an RCA reaction mixture (containing Phi29 reaction buffer, dNTPs, Phi29 polymerase) was added and incubated for RCA of the circularized probes.
as §1
FFPE human breast cancer, melanoma, lymph node, lung cancer, and normal lung tissues were processed essentially as described in Example 1. Specifically, 2-amino-5-methylbenzoic acid (Compound 1) or (4-aminopyridin-3-yl)phosphonic acid (Compound 8) was used as the de-crosslinking agent and applied to de-paraffinized and re-hydrated samples in a buffer solution, such as a solution of citrate buffer at pH 6 or a solution of TE buffer at pH 9. […] Analytes in the de-crosslinked tissue samples were detected essentially as described in Example 2.

[8] = tested on: normal lung tissue samples; test: RCP detection in catalytically de-crosslinked FFPE normal lung tissue samples; set-up: species or system human; details: compared to control samples de-crosslinked in a steamer (data not shown)
Method: FFPE human breast cancer, melanoma, lymph node, lung cancer, and normal lung tissues were processed essentially as described in Example 1. Specifically, 2-amino-5-methylbenzoic acid (Compound 1) or (4-aminopyridin-3-yl)phosphonic acid (Compound 8) was used as the de-crosslinking agent and applied to de-paraffinized and re-hydrated samples in a buffer solution, such as a solution of citrate buffer at pH 6 or a solution of TE buffer at pH 9. The samples were incubated under various de-crosslinking temperatures (e.g., 80° C. or 95° C.) for 30 minutes, using 0 mM or 200 mM of Compound 1 or Compound 8. Analytes in the de-crosslinked tissue samples were detected essentially as described in Example 2.
The RCPs were detected using detectable probes targeting barcode sequences for MALAT-I/ACTB or GAPDH/RPLPO or targeting the common anchor region in the RCPs (representative images in FIG. 8, left panel).

FFPE mouse brain tissues = test: RCP signal detection in de-crosslinked FFPE mouse brain tissues; details: compared to Compound 1 in citrate buffer (pH 6.8)
Method: FFPE mouse brain tissues were processed essentially as described in Example 1, and gene expression analysis for RNA transcripts and protein analysis (e.g., anti-GFAP antibody staining) in the dentate gyrus (DG) region were performed essentially as described in Examples 2 and 3. Four de-crosslinking agent and buffer combinations were tested: Compound 1 in citrate buffer (pH 6.8), Compound 15 in citrate buffer (pH 6.8), Compound 18 (trans-4-hydroxy-L-proline) in citrate buffer (pH 6.8), and Compound 1 in PBS (pH 7.4).

Cc1ccc(N)c(C(=O)O)c1 [Compound 1, 2-amino-5-methylbenzoic acid]
antibody staining (antibody positive signal intensity), anti-panCK [1]: may be improved | detection of RCPs (detected object counts per nucleic area, RCP count/μm^2 nuclei area) ([2]; TE buffer (pH 9)): significantly improve the detection of RCPs | detection of RCPs (detected object counts per nucleic area, RCP count/μm^2 nuclei area) ([2]; citrate buffer (pH 6)): significantly improve the detection of RCPs | sensitivity and RCP brightness ([2]; citrate buffer, between about 100 and about 200 mM): boost sensitivity and RCP brightness | anti-Vimentin antibody staining [3]: enhanced anti-Vimentin antibody staining | antibody staining (antibody positive signal intensity for Pan cytokeratin, Vimentin, and Ki67) [4]: compatible | detection of RCPs (detected object counts per nucleic area) ([5]; in the presence of SDS and proteinase K): appeared to improve the detection of RCPs | detection of RCPs (detected object counts per nucleic area) ([5]; in the presence of urea and proteinase K): appeared to improve the detection of RCPs | puncta brightness and/or numbers detected ([5]; in the presence of both 0.5 M urea and 1 μg/ml proteinase K): increases in puncta brightness and/or numbers detected | puncta brightness and/or numbers detected ([5]; in the presence of both 0.5 M urea with 0.5 μg/ml Proteinase K): increases in puncta brightness and/or numbers detected | tissue morphology [6]: preserved | visualization of transcripts GAPDH/RPLPO or MALAT-I/ACTB (RCPs) [7]: enhanced visualization | RNA/protein visualization [7]: enhanced RNA/protein visualization | RCP densities (detected object count per nucleic area, RCP count/μm^2 nuclei area) [8]: Higher RCP densities | signal density (detected object signal intensity above local background (mean)) (FFPE mouse brain tissues; PBS (pH 7.4)): improved signal density

Nc1ccncc1P(=O)(O)O [Compound 8, (4-aminopyridin-3-yl)phosphonic acid]
anti-Vimentin antibody staining [3]: enhanced anti-Vimentin antibody staining | visualization of transcripts GAPDH/RPLPO or MALAT-I/ACTB (RCPs) [7]: enhanced visualization | RNA/protein visualization [7]: enhanced RNA/protein visualization | RCP densities (detected object count per nucleic area, RCP count/μm^2 nuclei area) [8]: Higher RCP densities

Nc1ccccc1P(=O)(O)O [Compound 15, (2-aminophenyl)phosphonic acid]
signal density (detected object signal intensity above local background (mean)) (FFPE mouse brain tissues; citrate buffer (pH 6.8)): improved signal density

O=C(O)[C@@H]1C[C@@H](O)CN1 [Compound 18, trans-4-hydroxy-L-proline]
signal density (detected object signal intensity above local background (mean)) (FFPE mouse brain tissues; citrate buffer (pH 6.8)): improved signal density

From patent US20240035071A1, “CATALYTIC DE-CROSSLINKING OF SAMPLES FOR IN SITU ANALYSIS” (10X Genomics, Inc., priority 2022, published 2024)
